Results reported in patent publication US10111893B2, “Calmangafodipir, a new chemical entity, and other mixed metal complexes, methods of preparation, compositions, and methods of treatment” (priority 2012, dated 2018).
Read-outs that look alike come from different tables or passages of the source.

Key:
[1] = system: CT26 (mouse colon carcinoma) cells; assay: MTT viability assay, cytotoxic activity; conditions: 48 h, 1-1,000 μM
Description: The viability of cells was measured using the MTT assay. […] The viability of the cells was then assessed by adding 5 mg/ml methylthiazoletetrazolium (MTT) to a final concentration of 0.5 mg/ml and incubating cells for a further 4 h at 37° C. The blue formazan that is formed by mitochondrial dehydrogenases of viable cells was then dissolved over night at 37° C. by adding 10% SDS and 10 mM HCl to a final concentration of 5% SDS and 5 mM HCl. Finally, the absorbance of the solution was read at 570 nm with a reference at 670 nm in a microplate reader Spectramax 340 (Molecular Devices, Sunnyvale, Calif., USA) connected to an Apple Macintosh computer running the program Softmax Pro V1.2.0 (Molecular Devices, Sunnyvale, Calif., USA).

[2] = cited from earlier work
CT26 tumors [3] = assay: Antitumor activity of oxaliplatin with or without calmangafodipir in CT26-bearing mice; assay type: in vivo, balb/c mice
Description: When the cells reached ˜50% confluency they were harvested by trypsinization. Briefly, cells were washed with phosphate based saline (PBS) (pH 7.3) and exposed to 0.05% Trypsin/0.53 mM EDTA at 37° C. for ˜5 min. The trypsinization was stopped by adding RPMI1640 culture medium. Cells were counted and centrifuged at 200×g for 5 min. Thereafter, they were washed in PBS, centrifuged again and resuspended in PBS at a concentration of 2×10^6/350 μl for injection into mice. Balb/c female mice between 6 and 8 weeks of age were used, as described by Laurent et al., 2005. Briefly, each mouse was injected subcutaneously in the back of the neck with 2×10^6 of CT26 cells at day 0. After 7 days (day 7) when the tumors were detectable, the tumor size was determined with a caliper and mice were grouped (5 in each group) so that the sizes of the tumors were not statistically different by group. Oxaliplatin±calmangafodipir (lot #11AK0105B) was injected and one group of mice received vehicle (0.9% saline+5% glucose) treatment alone. In a first series of experiments, mice were injected i.v. with saline or 50 mg/kg calmangafodipir 30 minutes prior to i.p. administration of 20 mg/kg oxaliplatin (diluted in 5% glucose) or 5% glucose. These mice received in addition saline or 50mg/kg calmangafodipir 24 hours later (day 8). In another series of experiments, mice were injected i.v. with saline or 5 mg/kg calmangafodipir 30 minutes […] (diluted in 5% glucose) or 5% glucose, and saline or 5 mg/kg calmangafodipir 24 hours later (day 8). The mice were killed on day 10 and the tumors were excised and wet weights were determined.

white blood cells (WBC) = assay: Myelosuppressive effects of oxaliplatin in balb/c mice, cytoprotection
Description: One day before (baseline) as well as 3 and 6 days after oxaliplatin treatment 50 μl EDTA blood samples were taken from the orbital venous plexus with a glass capillary. The blood samples were analyzed using the automated system CELL-DYN® Emerald (Abbott Diagnostics) for the content of white blood cells (WBC), lymphocytes (LYM), neutrophils (NEU) and platelets (PLC). […] A control group received instead of oxaliplatin vehicle (5% glucose) and saline. […] The statistical differences between treatment groups, where appropriate, were tested by an unpaired Student's t-test. A p-value lower than 0.05 was considered as a statistically significant difference.

[4] = system: white blood cells (WBC), lymphocytes (LYM), neutrophils (NEU); assay: Myelosuppressive effects of carboplatin in balb/c mice, cytoprotection; assay type: in vivo
Description: A control group received vehicle (saline) and saline instead of carboplatin.

pig heart = conditions: pigs; cited from earlier work
human U1810 NSCLC cells = assay: MTT viability assay, cytotoxic activity; assay type: cell-based; conditions: for IC50: 48 h, MTT, read-out: IC50 (concentration causing 50% inhibition of viability)
Description: (§1) The viability of U1810 or LLC1 cells in the presence of increasing concentrations of calmangafodipir or mangafodipir is presented as concentration response curves (mean±S.D.). The individual curves were fitted to the sigmoidal variable slope response logistic equation (Graphpad Prism, version 5.02). From this analysis the concentrations causing 50% inhibition (IC50) of the test substances were calculated.

[5] = humans, diagnostic MR imaging dose iv; cited from earlier work
[6] = one patient, cited from earlier work
[7] = rats; cited from earlier work
[8] = rats, single 5 μmol/kg b.w., cited from earlier work
[9] = Manganese urine excretion 0-24 h after intravenous injection; conditions: rats; for Mn recovered in 0-24 h urine: iv 0.25 ml, 2.59 μmol Mn (mangafodipir) or 2.52 μmol Mn (calmangafodipir) injected; for Mn in 0-24 h urine as percentage of the injected dose: iv, basal excretion subtracted
Description: To obtain basal content of manganese (Mn) and zinc (Zn) in urine, two additional (control) rats received 0.25 ml saline and were placed in metabolic cages for urine collection over the same period of time. The urine samples were then stored at −80° C. until Mn analysis. Before analysis, the samples were thawed and extensively shaken to obtain homogenous samples. A five ml aliquot was taken from each sample and 5 ml concentrated nitric acid was added. The samples were then resolved in a microwave oven and thereafter diluted with distilled water to a final volume of 50 ml. The Mn content of each sample was analyzed by ICP-MS (Inductively Coupled Plasma Mass Spectrometry). Identical samples of calmangafodipir and mangafodipir as those injected in the rats (i.e., 0.25 ml) were withdrawn and injected into test tubes. These samples were treated in an identical manner to that of the urine samples and analyzed for their Mn content. Results are presented as total 0-24 h urine Mn content (expressed as μmol/kg±S.E.M.) and as percentage (±S.E.M.) of the injected dose. […] A p-value lower than 0.05 was considered as a statistically significant difference.

[10] = Mn content of brain, pancreas and liver after repeated intravenous injections; conditions: rats, 39 iv doses, 72 μmol/kg manganese each, 3 times a week for 13 weeks
Description: After the 13-week administration period, the rats were sacrificed and the brains and pancreas were dissected out and approximately 0.5 g samples were stored frozen until Mn analysis. The Mn content of each sample was analyzed by ICP-MS. Results are expressed as μg/g wet weight±S.E.M. Statistical difference between the mangafodipir group and the calmangafodipir group, with respect to Mn content, was tested by a paired Student's t-test. A p-value lower than 0.05 was considered as a statistically significant difference.

[11] = Variable humidity XRPD analysis of crystalline forms; assay type: physicochemical; conditions: 10 mg scale, change of ambient humidity
Description: X-Ray Powder Diffraction (XRPD) is most widely used in the identification and characterization of crystalline solids, each of which produces a distinctive diffraction pattern. Both the positions (corresponding to lattice spacings) and the relative intensity of the lines are indicative of a particular phase and material, providing a “fingerprint” for comparison.

[12] = Exposure of solids at 25° C./60% RH and 40° C./75% RH (water absorption); assay type: physicochemical; conditions: 7 days at 25° C./60% RH and 40° C./75% RH
Description: Furthermore, the preparation of a single active pharmaceutical ingredient reduces the cost of manufacture of a treatment dosage. In addition, the need for dosing of a single material reduces the chance for errors in the formulation of the product.
In a 4:1 ratio approximately 200 mg of calfodipir (CaDPDP) and 50 mg of mangafodipir (MnDPDP) were weighed into a 40 mL vial and dissolved in 40 mL of DI water at room temperature to generate a yellow solution. The yellow aqueous solution was spray dried using a Buchi Mini-Spray Dryer B-290 while attached to the Buchi dehumidifier B-296 as an air conditioner allowing the intake of air from the laboratory. Spray drying optimization experiments were performed at elevated inlet temperatures (220° C.) with varying feed rates (20, 30, 40, 50 and 60%). Recovery of product ranged from 180-230 mg.

CT26 tumors [13] = assay: Antitumor activity of oxaliplatin with or without calmangafodipir in CT26-bearing immune competent and nude balb/c mice; assay type: in vivo; conditions: 5 mg/kg calmangafodipir with 10 mg/kg oxaliplatin
Description: When the cells reached ˜50% confluency they were harvested by trypsinization. Briefly, cells were washed with PBS (pH 7.3) and exposed to 0.05% Trypsin/0.53 mM EDTA at 37° C. for ˜5 min. The trypsinization was stopped by adding RPMI 1640 culture medium. Cells were counted and centrifuged at 200×g for 5 min. Thereafter, they were washed in PBS, centrifuged again and resuspended in PBS at a concentration of 2×10^6/350 μl for injection into mice. Immune competent balb/c female mice (balb/c) and immune incompetent nude female balb/c mice (blab/c nu/nu) between 6 and 8 weeks of age were used, as described by Laurent et al., 2005. Briefly, each mouse was injected subcutaneously in the back of the neck with 2×10^6 of CT26 cells at day 0. After 7 days (day 7) when the tumors were detectable, the tumor size was determined with a caliper and mice were grouped (5 in each group) so that the sizes of the tumors were not statistically different by group. Groups of mice (5 in each group, as illustrated in FIG. 14) were injected i.v. with saline or 5 mg/kg calmangafodipir (lot #11AK0105B) 30 minutes prior to i.p. administration of 10 mg/kg oxaliplatin (diluted in 5% glucose) or 5% glucose. Mice received in addition saline or 5 mg/kg calmangafodipir 24 hours later (day 8). The mice were sacrificed on day 10 and the tumors were excised and wet weights were determined. The results are presented in a graph for the various treatments (mean±S.E.M.).

LLC1 NSCLC cells = assay: MTT viability assay, cytotoxic activity; assay type: cell-based, murine; conditions: 48 h
Description: as §1

Cc1ncc(COP(=O)(O)O)c(CN(CCN(CC(=O)O)Cc2c(COP(=O)(O)O)cnc(C)c2O)CC(=O)O)c1O [fodipir, N,N′-bis-(pyridoxal-5-phosphate)-ethylenediamine-N,N′-diacetic acid]
cytotoxic activity relative to mangafodipir [1]: about 20 times
affinity of zinc relative to manganese for the chelator ([2]; higher affinity of zinc): about 1000 times
affinity of calcium relative to manganese for the chelator ([2]; lower affinity of calcium): about 10^6 times
affinity of calcium relative to zinc for the chelator ([2]; lower affinity of calcium): about 10^9 times

[Ca+2].[Cl-].[Cl-] [CaCl2]
cytotoxic activity [1]: Neither ZnDPDP, ZnPLED nor CaCl2 displayed any cytotoxic activity at all

O=C1[O][Pt]2([NH][C@@H]3CCCC[C@H]3[NH]2)[O]C1=O [oxaliplatin]
reduction in tumor weight (CT26 tumors [3]; single treatment 20 mg/kg oxaliplatin i.p., day 10): more than 50%
fall in WBC (white blood cells (WBC); single dose 12.5 mg/kg oxaliplatin alone, 6 days after): more than 80%

N.N.O=C([O-])C1(C(=O)[O-])CCC1.[Pt+2] [Carboplatin, carboplatin]
decrease in WBC, as well as in NEU and LYM ([4]; carboplatin 125 mg/kg alone, 3 days after): approximately 50%

Cc1ncc(CO)c(CN(CCN(CC(=O)O)Cc2c(CO)cnc(C)c2O)CC(=O)O)c1O [MnPLED, N,N′-dipyridoxyl ethylenediamine-N,N′-diacetic acid]
cytotoxic activity relative to mangafodipir [1]: ~10 times
protection against ischemia-reperfusion-induced myocardial infarction (pig heart): significantly reduced myocardial infarct size

Cc1ncc(CO)c(CN(CCN(CC(=O)[O-])Cc2c(CO)cnc(C)c2O)CC(=O)[O-])c1O.[Zn+2] [ZnPLED]
cytotoxic activity [1]: Neither ZnDPDP, ZnPLED nor CaCl2 displayed any cytotoxic activity at all
stability of complex relative to manganese counterpart ([2]; higher stability): 1000 times

Cc1ncc(COP(=O)(O)O)c(CN(CCN(CC(=O)O)Cc2c(COP(=O)(O)O)cnc(C)c2O)CC(=O)O)c1O.[Mn] [mangafodipir, manganese N,N′-bis-(pyridoxal-5-phosphate)-ethylenediamine-N,N′-diacetic acid]
IC50 (human U1810 NSCLC cells): 633 µM
administered manganese released [5]: about 80%
neurotoxic symptoms ([6]; 14 of 15 cycles with mangafodipir pretreatment, accumulated 1275 mg/m^2 oxaliplatin): No neurotoxic symptoms were detected
neutropenia ([6]; during chemotherapy cycles): Neutropenia did not occur
fetal skeletal abnormalities [7]: caused fetal skeletal abnormalities in rats
protection against ischemia-reperfusion-induced myocardial infarction (pig heart): does not protect the pig heart against ischemia-reperfusion-induced myocardial infarction
Mn content of the pancreas relative to basal value ([8]; after 2 hours): approximately 10 times
Mn content of the pancreas relative to basal value ([8]; after 24 hours): about 5 times
Mn recovered in 0-24 h urine [9]: 0.60 ± 0.04 µmol
Mn in 0-24 h urine as percentage of the injected dose [9]: 23.1±1.4%
fall in WBC (white blood cells (WBC); 12.5 mg/kg oxaliplatin plus 1 mg/kg mangafodipir iv): around 50%
fall in WBC (white blood cells (WBC); 12.5 mg/kg oxaliplatin plus 10 mg/kg mangafodipir iv): around 50%
Mn content in the pancreas [10]: 5.54 ± 0.45 µmol/kg

Cc1ncc(COP(=O)([O-])O)c(CN(CCN(CC(=O)O)Cc2c(COP(=O)([O-])O)cnc(C)c2O)CC(=O)O)c1O.Cc1ncc(COP(=O)([O-])O)c(CN(CCN(CC(=O)O)Cc2c(COP(=O)([O-])O)cnc(C)c2O)CC(=O)O)c1O.Cc1ncc(COP(=O)([O-])O)c(CN(CCN(CC(=O)O)Cc2c(COP(=O)([O-])O)cnc(C)c2O)CC(=O)O)c1O.Cc1ncc(COP(=O)([O-])O)c(CN(CCN(CC(=O)O)Cc2c(COP(=O)([O-])O)cnc(C)c2O)CC(=O)O)c1O.Cc1ncc(COP(=O)([O-])O)c(CN(CCN(CC(=O)O)Cc2c(COP(=O)([O-])O)cnc(C)c2O)CC(=O)O)c1O.[Ca+2].[Ca+2].[Ca+2].[Ca+2].[Mn+2] [calmangafodipir]
time within which form conversions occur [11]: ≤ 3 h
appearance of solid after exposure [12]: remained a free flowing solid
cytotoxic activity relative to mangafodipir [1]: about 20 times
influence on antitumor effect of oxaliplatin (CT26 tumors [3]; 5 mg/kg calmangafodipir iv with 10 mg/kg oxaliplatin): statistically significant better antitumor effect
influence on antitumor effect of oxaliplatin (CT26 tumors [3]; 50 mg/kg calmangafodipir iv with 20 mg/kg oxaliplatin): did not have any negative influence on the antitumor effect of oxaliplatin
effect on carboplatin-induced decreases in WBC, NEU and LYM ([4]; calmangafodipir 3 mg/kg with carboplatin 125 mg/kg): abolished these decreases
shape of dose-response of myeloprotection ([4]; calmangafodipir 1, 3, 10 or 30 mg/kg with carboplatin 125 mg/kg): bell shaped appearance
influence on antitumor effect of oxaliplatin (CT26 tumors [13]; immune competent and immune incompetent mice): did not have any negative influence on the antitumor effect of oxaliplatin
mean tumor weight compared to controls (CT26 tumors [13]; immune competent mice): statistically significantly reduced
mean tumor weight compared to controls (CT26 tumors [13]; immune deficient mice): no such reduction was seen
IC50 ratio between mangafodipir and calmangafodipir (potency relative to mangafodipir) (human U1810 NSCLC cells): about 28 times
IC50 (human U1810 NSCLC cells): 22.7 µM
potency to kill cells compared with mangafodipir (LLC1 NSCLC cells): significantly more potent than mangafodipir
Mn recovered in 0-24 h urine [9]: 1.27 ± 0.07 µmol
Mn in 0-24 h urine as percentage of the injected dose [9]: 50.5±2.6%
fall in WBC (white blood cells (WBC); 12.5 mg/kg oxaliplatin plus 5 mg/kg calmangafodipir iv 30 min before and 24 h after): about 25%
Mn brain content [10]: 0.74±0.01 μg/g w.w.
Mn content in the pancreas [10]: 3.35 ± 0.19 µmol/kg
